Test results from US20240175062A1, “LIPOXYGENASE-BASED RECOMBINANT MICROORGANISMS, AND METHOD FORPREPARING HYDROXY FATTY ACIDS AND SECONDARY FATTY ALCOHOLS USING SAME” (EWHA UNIVERSITY - INDUSTRY COLLABORATION FOUNDATION, priority 2021, published 2024).
Like-named read-outs stand apart in the source and are kept apart here.

Assays:
[1] = molecular target: Enhygromyxa salina-derived lipoxygenase (EsLOX) (Enhygromyxa salina, UniProt A0A0C2CV93); assay: Enzymatic activity of purified EsLOX for long-chain unsaturated fatty acids (UV-vis spectrophotometer, 234 nm); assay type: biochemical; details: substrate of purified EsLOX, 50 mM EPPS (pH 8.5) buffer
Experimental: The culture medium was centrifuged at 13,000×g at 4° C. for 30 minutes and washed twice with phosphate-buffered saline, and added with 50 mM monosodium phosphate (NaH2PO4), 300 mM sodium chloride, 10 mM imidazole, 0.1 mM protease inhibitor (phenylmethylsulfonyl fluoride), and 400 U lysozyme, and then the cell solution was lysed with a sonicator. The cell lysate was centrifuged at 13,000×g at 4° C. for 10 minutes, and then the pellet was removed to separate only a cell supernatant. The cell supernatant was flowed onto a resin packed with an Ni-NTA agarose resin (Qiagen). The protein bound to the resin was washed with a wash buffer (50 mM NaH2PO4, 300 mM NaCl, 20/30 mM imidazole), eluted with an elution buffer (50 mM NaH2PO4, 300 mM NaCl, 250 mM imidazole) to purify Enhygromyxa lipoxygenase. Thereafter, a sample containing the purified Enhygromyxa lipoxygenase was prepared by obtaining a concentrated protein solution using 30 kDa Amicon.
Then, the enzymatic activity of the enzyme sample was measured using a UV-vis spectrophotometer (234 nm). More specifically, as the linoleic acid dioxygenation reaction progressed, the rate of increase in absorbance of a product, conjugated diene, was measured using the spectrophotometer, and the reaction time was measured for each of 10 seconds up to 180 seconds.

[2] = substrate: CCCCC/C=C\C/C=C\C/C=C\C/C=C\CCCC(=O)O; assay: cells, lysate or membranes named; details: other: substrate of purified EsLOX, 234 nm, 50 mM EPPS (pH 8.5) buffer

CCCCC/C=C\C/C=C\CCCCCCCC(=O)O [Linoleic acid, linoleic acid]
Km ([1]; read-out: KM): 90 µM

CC/C=C\C/C=C\C/C=C\CCCCCCCC(=O)O [α-Linolenic acid, α-linolenic acid]
Km ([1]; read-out: KM): 120 µM

CCCCC/C=C\C/C=C\C/C=C\CCCCC(=O)O [γ-Linolenic acid, γ-linolenic acid]
Km [1]: 130 µM

B1: Enhygromyxa salina-derived lipoxygenase (EsLOX) (Enhygromyxa salina) (protein)
chain: MSNIPTLPQNDPRPEQRAQQLDKARETYKYADLLPPLAFCEGVPKPDTPSAAWLVTVGKVAAAVALNAVANRRAWKRGDHDEEDASFDVGGTSEEDQNEAGHNSFLARLENFDEEAVSFAPGDEPSVLDEVNERVAAILGAKPNRHVPPAQADDDDNGDDGDGDESFGVLDGNVSKDGPNGRPQSMDDYANLFRRITLPPIASTWKNDSAFAAYRVAGPNASMIQRITELPDNFAVTDAHYKQAMGEGDSLDAAKAEGRLFLADWKLIGETLVNNTYKGAQKTVYAPLALFAVPPGGGSLAPVAIQPGQTPSPTNKIYATQDGNDWLAAKSAVQVAEGNYHELVSHLGLTHLLLEPIVMATYRQLAQHHPIYMLLIPHFEGTLSINNSAATNLIAPGGAVDLIFAGTIESEHQLALAALKRHDFMRSGLPDTIEQRGVGDTSVLTDYPYRDDGLKIWANIERWVTAYVNNYYISEANVTQDTELQAWAAVLSKPFAEGGVSGFGPIDTRAALIFACTKVIFTASAEHSAVNFPQKDLMSYAPAITGAGWTAAPPSQGPLKDFQPPLELAELQAEFLYLLGGVHHTKLGFYNSNSFPYRAWFKDPKITAELLPAFQRDLAASEELIVAANATRTFKYTYMIPSTIPMSINI
Km [2]: 80 µM | kcat/Km [2]: 290000 M⁻¹ s⁻¹
